# Data taken from US4520022A, “Substituted vinyl cephalosporins” (priority 1983, dated 1985).
# “And” between values parts separate entries of the source, which are not always exact repeats. Identical values can stand only once. Like-named read-outs stand apart in the source and are kept apart here.
# Key:
# [1] = test system: C. difficile A21675; assay: In vitro activity against anaerobes (MIC), C. difficile; assay type: cell-based; settings: Clostridioides difficile
# [2] = test system: S. pyogenes A20201; assay: Protective dose PD50, mice infected with lethal inoculum, oral treatment, S. pyogenes A20201; assay type: in vivo; settings: Streptococcus pyogenes, 120 h
# [3] = test system: S. pneumoniae; assay: In vitro activity against Streptococci (MIC), S. pneumoniae; assay type: cell-based; settings: Streptococcus pneumoniae
# [4] = test system: S. aureus BX-1633; assay: Protective dose PD50, mice infected with lethal inoculum, oral treatment, S. aureus BX-1633; assay type: in vivo; settings: Staphylococcus aureus, BX1633, 120 h
# [5] = test system: H. influenza A9729; assay: Protective dose PD50, mice infected with lethal inoculum, oral treatment, H. influenza A9729; assay type: in vivo; settings: Mus musculus, 120 h
# Text: The structure activity correlations drawn from the foregoing in vitro studies are born out by the results of in vivo studies in mice. Table 4 is a tabulation of the protective doses for mice infected with a lethal inoculum of a bacteria. Two different bacteria were employed in the studies, one a Gram+ organism and the other a Gram- organism. The protective dose (PD50) is that dose which when administered to a group of infected mice results in 50% survival after five days. Normally untreated infected mice die within three days following injection of the lethal inoculum.
# Protective Dose PD50 for Mice Infected with Lethal Inoculum
# [6] = test system: P. acnes A21933; assay: In vitro activity against anaerobes (MIC), P. acnes; assay type: cell-based; settings: Cutibacterium acnes, A21933
# [7] = test system: P. mirabilis A9554; assay: Protective dose PD50, mice infected with lethal inoculum, oral treatment, P. mirabilis A9554; assay type: in vivo
# [8] = test system: S. pyogenes; assay: In vitro activity against Streptococci (MIC), S. pyogenes; assay type: cell-based
# [9] = test system: N. gonorrheae; assay: In vitro activity against Neisseria (MIC), N. gonorrheae; assay type: cell-based
# [10] = test system: H. influenzae; assay: In vitro activity against Haemophilis (MIC), H. influenzae; assay type: cell-based; settings: Haemophilus influenzae, Compound 9 lot 2
# [11] = test system: P. anaerobius A21905; assay: In vitro activity against anaerobes (MIC), P. anaerobius; assay type: cell-based; settings: Peptostreptococcus anaerobius, A21905
# [12] = test system: N. meningitidis; assay: In vitro activity against Neisseria (MIC), N. meningitidis; assay type: cell-based
# [13] = test system: B. fragilis; assay: In vitro activity against anaerobes (MIC), B. fragilis; assay type: cell-based; settings: Bacteroides fragilis
# [14] = test system: Gp Ib: S. aureus 193, BX-1633-2 A9606, A15092, Russell, A9602; settings: Staphylococcus aureus, read-out: Minimum Inhibitory Concentration Gp Ib, Mueller-Hinton agar, average of five organisms
# [15] = test system: Gp Ia: S. aureus Smith A9537, A9497, Terajima, A9534, A9601; settings: Staphylococcus aureus, read-out: Minimum Inhibitory Concentration Gp Ia, Mueller-Hinton agar, average of five organisms
# [16] = test system: Gp, rods; Gp, cocci; assay: microbe, parasite or virus in culture; assay type: cell-based, C. difficile; C. perfringens; P. acnes; P. anaerobius; settings: read-out: MIC, Geometric Mean
# [17] = test system: E. coli Juhl; assay: Protective dose, mice infected with lethal inoculum, oral treatment, E. coli Juhl; assay type: in vivo; settings: value in parentheses: cephalexin in the same run as the compound of that line
# [18] = test system: C. perfringens A9645; assay: microbe, parasite or virus in culture; assay type: cell-based; settings: Clostridium perfringens
# [19] = test system: S. aureus Smith; assay: Protective dose, mice infected with lethal inoculum, oral treatment, S. aureus Smith; assay type: in vivo; settings: value in parentheses: cephalexin in the same run as the compound of that line
# [20] = S. pyogenes A9604, Compound 9 lot 2
# [21] = S. pyogenes A15040, Compound 9 lot 2
# [22] = S. pyogenes A20065, Compound 9 lot 2
# [23] = S. pyogenes Dick, Compound 9 lot 2
# [24] = Streptococcus pyogenes, read-out: MIC, Geometric Mean
# [25] = B. fragilis A20928-1, β-lactamase (-)
compound,measurement,setting,value
N[C@@H](C(=O)N[C@@H]1C(=O)N2C(C(=O)O)=C(Cl)CS[C@H]12)c1ccccc1 [Cefaclor],MIC,[1]; A21675,25 µg/mL
same,ED50,[2],0.14 mg/kg
same,MIC,[3],0.8 µg/mL
same,MIC,"[3]; read-out: MIC, Geometric Mean",1.3 µg/mL
same,ED50,[4],2.2 mg/kg
same,ED50,[5],1.6 mg/kg
same,MIC,[6],0.8 µg/mL
same,Protective Dose PD50,[7],1.8
same,MIC,[8]; [20],0.2 µg/mL
same,MIC,[8]; [21],0.2 µg/mL
same,MIC,[8]; [22],0.2 µg/mL
same,MIC,[8]; [23],0.2 µg/mL
same,MIC,[8]; Streptococcus pyogenes,0.2 µg/mL
same,MIC,[8]; [24],0.2 µg/mL
same,MIC,[9],0.8 µg/mL
same,MIC,"[9]; N. gonorrheae A20143, Compound 9 lot 2",0.8 µg/mL
same,MIC,"[9]; N. gonorrheae A20154, Compound 9 lot 2",0.8 µg/mL
same,MIC,"[9]; N. gonorrheae A20155, Compound 9 lot 2",0.8 µg/mL
same,MIC,"[9]; read-out: MIC, Geometric Mean",0.8 µg/mL
same,MIC,[10]; H. influenzae A9729,0.8 µg/mL
same,MIC,[10]; H. influenzae A9833,0.8 µg/mL
same,MIC,[10]; H. influenzae A20177,0.8 µg/mL
same,MIC,[10]; H. influenzae A20193,0.8 µg/mL
same,MIC,[10]; H. influenzae A21523,0.8 µg/mL
same,MIC,[10]; H. influenzae A22482,0.4 µg/mL
same,MIC,[10]; H. influenzae A22483,0.4 µg/mL
same,MIC,"[10]; read-out: MIC, Geometric Mean, H. influenzae, seven strains above",0.66 µg/mL
same,MIC,[11],0.4 µg/mL
same,MIC,[12]; N. meningitidis A20049,0.8 µg/mL
same,MIC,"[12]; N. meningitidis A21487, Compound 9 lot 2",0.8 µg/mL
same,MIC,"[12]; N. meningitidis A21496, Compound 9 lot 2",0.8 µg/mL
same,MIC,"[12]; N. meningitidis A21497, Compound 9 lot 2",0.8 µg/mL
same,MIC,[12]; Neisseria meningitidis,0.8 µg/mL
same,MIC,"[12]; Neisseria meningitidis, read-out: MIC, Geometric Mean",0.8 µg/mL
same,MIC,[13]; [25],3.1 µg/mL
same,MIC,"[13]; B. fragilis A20935, β-lactamase (-)",3.1 µg/mL
same,MIC,"[13]; B. fragilis A22021, β-lactamase (+)",> 100 µg/mL
same,MIC,"[13]; B. fragilis A22053, β-lactamase (+)",100 µg/mL
same,MIC,"[13]; B. fragilis A22533, β-lactamase (+)",> 100 µg/mL
same,MIC,"[13]; B. fragilis A22693, β-lactamase (+)",> 100 µg/mL
same,MIC,"[13]; B. fragilis A22695, β-lactamase (+)",100 µg/mL
same,MIC,"[13]; read-out: MIC, Geometric Mean, B. fragilis A20928-1, A21900, A20935, β-lactamase (-)",3.9 µg/mL
same,MIC,"[13]; read-out: MIC, Geometric Mean, B. fragilis A22053, A22021, A22693, β-lactamase (+)",> 100 µg/mL
same,MIC,"[13]; read-out: MIC, Geometric Mean, B. fragilis A22695, A22533, β-lactamase (+)",> 100 µg/mL
CC1=C(C(=O)O)N2C(=O)[C@@H](NC(=O)[C@H](N)c3ccccc3)[C@H]2SC1 [Cephalexin],MIC,"[1]; Gp rods, C. difficile A21675, clindamycin resistant, read-out: MIC",100 µg/mL
same,ED50,[2],0.74 mg/kg
same,MIC,[14]; run 1,4.1 µg/mL
same,MIC,[14]; run 2,3.6 µg/mL
same,MIC,[3],3.1 µg/mL
same,MIC,"[3]; S. pneumoniae A9585, Compound 9 lot 2",3.1 µg/mL
same,MIC,"[3]; S. pneumoniae A15069, Compound 9 lot 2",3.1 µg/mL
same,MIC,"[3]; S. pneumoniae A20759, Compound 9 lot 2",3.1 µg/mL
same,MIC,"[3]; S. pneumoniae Type I, Compound 9 lot 2",3.1 µg/mL
same,MIC,"[3]; S. pneumoniae Type III, Compound 9 lot 2",3.1 µg/mL
same,MIC,"[3]; read-out: MIC, Geometric Mean",3.1 µg/mL
same,MIC,[15]; run 1,1.2 µg/mL
same,MIC,[15]; run 2,0.7 µg/mL
same,ED50,[4],17 mg/kg
same,ED50,[5],18 mg/kg
same,Protective Dose PD50,[7],12.5
same,MIC,[16],11 µg/mL
same,ED50,"[17]; Escherichia coli, po, 120 h, read-out: Protective dose (PD50) of cephalexin in the same run, E. coli Juhl, oral",8.4 mg/kg
same,"Protective dose (PD50) of cephalexin in the same run, E. coli Juhl","[17]; oral, 7200 min",8.2 mg/kg
same,MIC,[8]; [20],0.8 µg/mL
same,MIC,[8]; [21],0.8 µg/mL
same,MIC,[8]; [22],0.8 µg/mL
same,MIC,"[8]; S. pyogenes A20201, Compound 9 lot 2",0.8 µg/mL
same,MIC,[8]; [23],0.8 µg/mL
same,MIC,[8]; Streptococcus pyogenes,0.8 µg/mL
same,MIC,[8]; [24],0.8 µg/mL
same,MIC,[18],12.5 µg/mL
same,ED50,"[19]; Staphylococcus aureus, po, 120 h, read-out: Protective dose (PD50) of cephalexin in the same run, S. aureus Smith, oral",0.31 mg/kg
same,"Protective dose (PD50) of cephalexin in the same run, S. aureus Smith","[19]; oral, 7200 min",0.27 mg/kg and 0.22 mg/kg
same,MIC,"[10]; H. influenzae A22157, read-out: MIC",3.1 µg/mL
same,MIC,"[10]; H. influenzae A22481, read-out: MIC",3.1 µg/mL
same,MIC,"[10]; H. influenzae A22491, read-out: MIC",3.1 µg/mL
same,MIC,"[13]; B. fragilis A20928-1, A21900, A20935, β-lactamase (-), read-out: MIC, Geometric Mean",9.9 µg/mL
same,MIC,[13]; [25],12.5 µg/mL
same,MIC,"[13]; B. fragilis A22021, β-lactamase (+), read-out: MIC",100 µg/mL
same,MIC,"[13]; B. fragilis A22053, A22021, A22693, β-lactamase (+), read-out: MIC, Geometric Mean",> 75 µg/mL
same,MIC,"[13]; B. fragilis A22053, β-lactamase (+), read-out: MIC",25 µg/mL
same,MIC,"[13]; B. fragilis A22533, β-lactamase (+), read-out: MIC",> 100 µg/mL
same,MIC,"[13]; B. fragilis A22693, β-lactamase (+), read-out: MIC",> 100 µg/mL
same,MIC,"[13]; B. fragilis A22695, A22533, β-lactamase (+), read-out: MIC, Geometric Mean",> 100 µg/mL
same,MIC,"[13]; B. fragilis A22695, β-lactamase (+), read-out: MIC",100 µg/mL
